From ChEMBL document CHEMBL3808363, “2-(Thienothiazolylimino)-1,3-thiazolidin-4-ones inhibit cell division cycle 25 A phosphatase” (Bioorg Med Chem, 2016)
Calls of active or inactive are those of the source. No cut-off for these calls is given here.

What was measured:
[1] = target: T1, M-phase inducer phosphatase 1 (Homo sapiens) (UniProt P30304); test: (§1) Inhibition of human recombinant full length GST-tagged CDC25A transfected in Escherichia coli BL21-DE3 using 3-O-methylfluorescein phosphate as substrate at 10 uM incubated for 20 mins followed by substrate addition measured every 10 mins for 2 hrs by fluorimetric assay
T1 sequence (whole entry): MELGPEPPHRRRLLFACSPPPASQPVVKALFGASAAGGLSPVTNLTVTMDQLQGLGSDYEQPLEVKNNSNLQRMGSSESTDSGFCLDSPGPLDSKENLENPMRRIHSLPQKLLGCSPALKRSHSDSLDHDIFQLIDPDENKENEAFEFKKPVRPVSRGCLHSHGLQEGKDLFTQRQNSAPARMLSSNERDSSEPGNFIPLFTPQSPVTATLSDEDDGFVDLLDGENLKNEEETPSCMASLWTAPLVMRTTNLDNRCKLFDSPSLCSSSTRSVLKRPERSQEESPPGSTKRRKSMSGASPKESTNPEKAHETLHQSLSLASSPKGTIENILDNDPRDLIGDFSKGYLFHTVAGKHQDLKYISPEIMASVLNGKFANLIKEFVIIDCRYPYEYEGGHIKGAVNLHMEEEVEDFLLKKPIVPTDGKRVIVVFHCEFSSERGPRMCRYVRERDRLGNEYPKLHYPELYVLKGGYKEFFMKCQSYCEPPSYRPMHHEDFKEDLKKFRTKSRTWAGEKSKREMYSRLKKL

[2] = target: T1, M-phase inducer phosphatase 1 (Homo sapiens); test: as §1, with “assay in presence of 0.1% triton X 100” for “assay”
MDA-MB-231 [3] = test: Increase in RNS levels in human MDA-MB-231 cells at IC50 concentration incubated for 24 hrs by DAF-2DA dye based flow cytometry; type: functional, cell-based
MDA-MB-231 [4] = test: Cytostatic activity against human MDA-MB-231 cells at IC50 concentration; type: functional, cell-based
MCF7 [5] = test: Antiproliferative activity against human MCF7 cells assessed as cell viability at IC50 concentration after 48 hrs by 2',7'-dichlorofluorescin diacetate/PI staining based flow cytometry; type: functional
MCF7 [6] = test: Induction of autophagy in human MCF7 cells assessed as acidic vesicles at 5.1 uM over 3 days by acridine orange dye based flow cytometry; type: functional, cell-based
[7] = target: T2, M-phase inducer phosphatase 2 (Homo sapiens) (UniProt P30305); test: Inhibition of human recombinant GST-tagged CDC25B catalytic domain transfected in Escherichia coli BL21-DE3 using 3-O-methylfluorescein phosphate as substrate at 10 uM incubated for 20 mins followed by substrate addition measured every 10 mins for 2 hrs by fluorimetric assay
T2 sequence (whole entry): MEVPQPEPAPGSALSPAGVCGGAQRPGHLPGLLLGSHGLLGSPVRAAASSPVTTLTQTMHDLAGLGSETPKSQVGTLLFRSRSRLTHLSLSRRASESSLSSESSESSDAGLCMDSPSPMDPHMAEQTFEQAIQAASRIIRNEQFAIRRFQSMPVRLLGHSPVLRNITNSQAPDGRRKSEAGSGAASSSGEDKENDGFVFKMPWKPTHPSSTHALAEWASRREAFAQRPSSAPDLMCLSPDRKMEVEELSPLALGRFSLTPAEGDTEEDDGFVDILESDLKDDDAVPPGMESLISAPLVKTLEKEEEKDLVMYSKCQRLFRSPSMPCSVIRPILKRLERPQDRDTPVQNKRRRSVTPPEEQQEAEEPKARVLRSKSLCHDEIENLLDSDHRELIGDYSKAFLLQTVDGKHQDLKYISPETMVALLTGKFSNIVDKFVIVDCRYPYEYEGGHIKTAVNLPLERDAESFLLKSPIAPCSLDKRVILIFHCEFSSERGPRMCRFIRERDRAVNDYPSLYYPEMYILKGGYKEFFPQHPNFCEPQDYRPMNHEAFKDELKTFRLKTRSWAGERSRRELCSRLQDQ

MDA-MB-231 [8] = test: Antiproliferative activity against human MDA-MB-231 cells assessed as cell viability at IC50 concentration after 48 hrs by 2',7'-dichlorofluorescin diacetate/PI staining based flow cytometry; type: functional
MCF7 [9] = test: Cytostatic activity against human MCF7 cells at IC50 concentration; type: functional, cell-based
[10] = target: Cyclin-dependent kinase 1 (Homo sapiens) (UniProt P06493); test: Effect on CDK1 phosphorylation in human MDA-MB-231 after 6 hrs by Western blot analysis
Chain of Cyclin-dependent kinase 1 (Homo sapiens) (P06493 whole entry, looked up): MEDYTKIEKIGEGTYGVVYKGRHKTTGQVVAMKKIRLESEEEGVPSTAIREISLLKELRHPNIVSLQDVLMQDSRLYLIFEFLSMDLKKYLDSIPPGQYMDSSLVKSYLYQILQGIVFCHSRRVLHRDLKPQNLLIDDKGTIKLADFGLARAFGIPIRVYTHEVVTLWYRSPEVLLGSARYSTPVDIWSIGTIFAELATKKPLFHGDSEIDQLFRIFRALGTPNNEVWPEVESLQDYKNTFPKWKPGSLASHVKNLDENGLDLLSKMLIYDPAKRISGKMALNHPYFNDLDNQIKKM

HT-29 = test: Cytotoxicity against human HT-29 cells assessed as inhibition of cell growth after 72 hrs by MTT assay; type: functional, cell-based; conditions: HT-29, 72 h
[11] = target: T3, M-phase inducer phosphatase 3 (Homo sapiens) (UniProt P30307); test: Inhibition of human recombinant full length GST-tagged CDC25C transfected in Escherichia coli BL21-DE3 using 3-O-methylfluorescein phosphate as substrate at 10 uM incubated for 20 mins followed by substrate addition measured every 10 mins for 2 hrs by fluorimetric assay
T3 sequence (whole entry): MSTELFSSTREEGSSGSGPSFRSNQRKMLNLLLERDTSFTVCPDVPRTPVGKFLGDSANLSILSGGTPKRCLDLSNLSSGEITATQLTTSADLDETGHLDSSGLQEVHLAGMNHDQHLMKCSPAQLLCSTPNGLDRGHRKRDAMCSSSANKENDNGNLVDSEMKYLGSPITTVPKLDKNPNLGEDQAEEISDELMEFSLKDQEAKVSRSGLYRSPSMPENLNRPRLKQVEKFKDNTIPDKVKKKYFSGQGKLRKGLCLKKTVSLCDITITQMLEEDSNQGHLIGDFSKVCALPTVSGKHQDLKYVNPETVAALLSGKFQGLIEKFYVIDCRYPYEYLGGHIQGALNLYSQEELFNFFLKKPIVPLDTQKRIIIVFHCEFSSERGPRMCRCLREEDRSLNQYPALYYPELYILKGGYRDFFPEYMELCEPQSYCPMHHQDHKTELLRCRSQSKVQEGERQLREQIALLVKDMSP

MCF7 [12] = test: Cell cycle arrest in human MCF7 cells assessed as accumulation at G2/M phase at IC50 concentration after 48 hrs by propidium iodide staining-based flow cytometry (reference value: 13.8 +/- 1%); type: functional
MCF7 [13] = test: Cytotoxicity against human MCF7 cells assessed as inhibition of cell growth after 72 hrs by MTT assay; type: functional, cell-based; conditions: MCF7, 72 h
MCF7 [14] = test: Cell cycle arrest in human MCF7 cells assessed as accumulation at S phase at IC50 concentration after 48 hrs by propidium iodide staining-based flow cytometry (reference value: 19.5 +/- 0.6%); type: functional
[15] = Cytotoxicity against human HCT116 cells assessed as inhibition of cell growth after 72 hrs by MTT assay; type: functional, cell-based; conditions: HCT-116, 72 h
[16] = target: T4, M-phase inducer phosphatase 1 (Homo sapiens, UniProt P30304); test: as §1, with “Mixed type inhibition of” for “Inhibition of”, “BL21-DE3 assessed as enzyme/substrate/inhibitor complex” for “BL21-DE3”, “at 5” for “at 10”
T4 sequence (P30304 whole entry): T1 sequence (whole entry)

[17] = target: T4, M-phase inducer phosphatase 1; test: as §1, with “Mixed type inhibition of” for “Inhibition of”, “BL21-DE3 assessed as enzyme/inhibitor complex” for “BL21-DE3”, “at 20” for “at 10”

Q: With COc1ccc(/C=C2/S/C(=N\c3nc4cc(-c5ccc(Cl)cc5)sc4s3)NC2=O)cc1 as the compound, how does the inhibition [1] read?
A: 70.3%

Q: What about the inhibition [2] of the same compound?
A: 86.2%

Q: And the Activity (MDA-MB-231 [3])?
A: Active

Q: What about the Activity (MDA-MB-231 [4]) of the same compound?
A: Active

Q: What about the Activity (MCF7 [5]) of the same compound?
A: inactive

Q: And the Activity (MCF7 [6])?
A: inactive

Q: And the inhibition [7]?
A: 36.7%

Q: And the Activity (MDA-MB-231 [8])?
A: inactive

Q: And the Activity (MCF7 [9])?
A: Active

Q: And the Activity [10]?
A: inactive

Q: And the IC50 (HT-29)?
A: 10.3 µM

Q: And the inhibition [11]?
A: 24%

Q: What about the Activity (MCF7 [12]) of the same compound?
A: 15.8%

Q: What about the IC50 (MCF7 [13]) of the same compound?
A: 5.1 µM

Q: What about the Activity (MCF7 [14]) of the same compound?
A: 25.3%

Q: And the IC50 [15]?
A: 9.2 µM

Q: And the Ki [16]?
A: 12.2 µM

Q: What about the Ki [17] of the same compound?
A: 3.1 µM
